Experimental data taken from PubChem BioAssay (NCI).
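Step 1: Grow cells in 96-well plates. Step 2: Expose to compound for 48 hours at 5 concentrations. Step 3: Interpolate endpoints linearly; if unreached, use highest concentration. At the GI50, growth is halved. TGI denotes the concentration required for complete inhibition of growth.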

Tests used:
Test in all cases: NCI tumour cell line growth inhibition, 48 h
[1] = test system: BT-549 breast
[2] = test system: HCC-2998 colon
[3] = test system: DU-145 prostate
[4] = test system: HL-60(TB) leukemia
[5] = test system: TK-10 renal
[6] = test system: ACHN renal
[7] = test system: UACC-257 melanoma
[8] = test system: K-562 leukemia
[9] = test system: NCI-H522 lung
[10] = test system: SNB-19 CNS
[11] = test system: 786-0 renal
[12] = test system: HOP-62 NSCLC
[13] = test system: NCI-H226 lung
[14] = test system: PC-3 prostate
[15] = test system: EKVX NSCLC
[16] = test system: OVCAR-8 ovarian
[17] = test system: RXF 393 renal
[18] = test system: HOP-92 NSCLC
[19] = test system: SN12C renal
[20] = test system: LOX IMVI melanoma
[21] = test system: A498 renal
[22] = test system: KM12 colon
[23] = test system: UACC-62 melanoma
[24] = test system: HCT-15 colon
[25] = test system: A549 NSCLC
[26] = test system: CAKI-1 renal
[27] = test system: MDA-MB-231 breast
[28] = test system: SF-268 CNS
[29] = test system: OVCAR-4 ovarian
[30] = test system: HT29 colon
[31] = test system: SNB-75 CNS
[32] = test system: OVCAR-5 ovarian
[33] = test system: IGROV1 ovarian
[34] = test system: RPMI-8226 leukemia
[35] = test system: SF-539 CNS
[36] = test system: MCF7 breast
[37] = test system: NCI-H460 lung
[38] = test system: SK-MEL-28 melanoma
[39] = test system: SR leukemia
[40] = test system: SK-MEL-5 melanoma
[41] = test system: HS 578T breast
[42] = test system: HCT-116 colon
[43] = test system: CCRF-CEM leukemia
[44] = test system: T-47D breast
[45] = test system: MOLT-4 leukemia
[46] = test system: NCI-H23 lung
[47] = test system: NCI/ADR-RES ovarian
[48] = test system: U251 CNS
[49] = test system: SW-620 colon
[50] = test system: SK-OV-3 ovarian
[51] = test system: SF-295 CNS
[52] = test system: UO-31 renal

## COc1ccc(Cn2cc3c(c2-c2cc(OC)c(OC)c(OC)c2)CCCc2cnoc2-3)cc1
[1]
  GI50: 482 nM
  TGI: > 100 µM
[2]
  GI50: 1610 nM
  TGI: 10.6 µM
[3]
  GI50: 4.11 µM
  TGI: > 100 µM
[4]
  GI50: 350 nM
  TGI: > 100 µM
[5]
  GI50: > 100 µM
  TGI: > 100 µM
[6]
  GI50: 900 nM
  TGI: > 100 µM
[7]
  GI50: > 100 µM
  TGI: > 100 µM
[8]
  GI50: 422 nM
  TGI: > 100 µM
[9]
  GI50: 975 nM
  TGI: 6.9 µM
[10]
  GI50: 1530 nM
  TGI: > 100 µM
[11]
  GI50: 669 nM
  TGI: > 100 µM
[12]
  GI50: 2220 nM
  TGI: > 100 µM
[13]
  GI50: 1990 nM
  TGI: > 100 µM
[14]
  GI50: 849 nM
  TGI: > 100 µM
[15]
  GI50: 3000 nM
  TGI: > 100 µM
[16]
  GI50: 4.3 µM
  TGI: > 100 µM
[17]
  GI50: 658 nM
  TGI: 5.04 µM
[18]
  GI50: 1270 nM
  TGI: > 100 µM
[19]
  GI50: 4.6 µM
  TGI: > 100 µM
[20]
  GI50: 997 nM
  TGI: > 100 µM
[21]
  GI50: 696 nM
  TGI: 7.11 µM
[22]
  GI50: 692 nM
  TGI: > 100 µM
[23]
  GI50: 906 nM
  TGI: > 100 µM
[24]
  GI50: 478 nM
  TGI: > 100 µM
[25]
  GI50: 2340 nM
  TGI: > 100 µM
[26]
  GI50: 490 nM
  TGI: > 100 µM
[27]
  GI50: 2540 nM
  TGI: > 100 µM
[28]
  GI50: 4.72 µM
  TGI: > 100 µM
[29]
  GI50: 4.97 µM
  TGI: > 100 µM
[30]
  GI50: 1130 nM
  TGI: > 100 µM
[31]
  GI50: 869 nM
  TGI: 4.75 µM
[32]
  GI50: 3.72 µM
  TGI: > 100 µM
[33]
  GI50: 562 nM
  TGI: > 100 µM
[34]
  GI50: 1560 nM
  TGI: > 100 µM
[35]
  GI50: 700 nM
  TGI: 5.17 µM
[36]
  GI50: 437 nM
  TGI: > 100 µM
[37]
  GI50: 500 nM
  TGI: > 100 µM
[38]
  GI50: > 100 µM
  TGI: > 100 µM
[39]
  GI50: 359 nM
  TGI: > 100 µM
[40]
  GI50: 2000 nM
  TGI: > 100 µM
[41]
  GI50: 1540 nM
  TGI: > 100 µM
[42]
  GI50: 391 nM
  TGI: > 100 µM
[43]
  GI50: 415 nM
  TGI: > 100 µM
[44]
  GI50: 1850 nM
  TGI: > 100 µM
[45]
  GI50: 802 nM
  TGI: > 100 µM
[46]
  GI50: 2620 nM
  TGI: > 100 µM
[47]
  GI50: 544 nM
  TGI: > 100 µM
[48]
  GI50: 4.47 µM
  TGI: > 100 µM
[49]
  GI50: 474 nM
  TGI: > 100 µM
[50]
  GI50: 4.18 µM
  TGI: > 100 µM
[51]
  GI50: 511 nM
  TGI: > 100 µM
[52]
  GI50: 924 nM
  TGI: > 100 µM
